Laboratory results from US10494375B2, “Antimicrobial compound” (priority 2016, dated 2019).
In brackets after ≈: the same amount, converted by molar mass. Like-named read-outs stand apart in the source and are kept apart here. Where a SMILES comes first, the peptide text is derived from it. Bridges are numbered along the chain shown (N, C = ends). [ ]: non-standard residue; d: D form. The star is where a group is joined. Ileψ(thiazoline)Cys = CC[C@H](C)[C@H](N)C1=N[C@H](C(=O)*)CS1; dOrn = NCCC[C@@H](N)C(=O)O

Tests used:
E. faecium CCUG 37832 = experiment: MIC determination by standardized microdilution test in Mueller-Hinton broth; assay type: cell-based, Enterococcus faecium
Method: (§1) MBL-AB01 was tested against a panel of Gram-negative and Gram-positive pathogens. MICs for all Gram-positive and Gram-negative bacterial strains were determined by standardized microdilution tests using Mueller-Hinton broth (Acumedia). Bacterial inoculums containing 5×10^5 CFU/ml were incubated for 19 h at 35° C. in the presence of different antibiotic concentrations according to Clinical and Laboratory Standards Institute protocols. The bacterial strains were obtained from the culture collections ATCC (American Type Culture Collection), NCTC (National Collection of Type Cultures) and CCUG (culture collection university of Göteborg Sweden).

E. faecium CTC 492 = experiment: as above; assay type: cell-based, Enterococcus faecium
Method: as §1

S. aureus NCTC 6571 = experiment: as above; assay type: cell-based
Method: as §1

[1] = system: S. aureus ATCC 43300 (MRSA); experiment: as above; assay type: cell-based
Method: as §1

S. aureus ATCC 29213 = experiment: as above; assay type: cell-based
Method: as §1

M. luteus, ATCC 9341 = experiment: as above; assay type: cell-based, Micrococcus luteus
Method: as §1

[2] = system: IMR90 Human Lung Fibroblast (ATCC CCL-186) cells; experiment: In vitro cytotoxicity, CellTiter-GLO 2.0 viability assay; assay type: cell-based; details: IMR-90, 24 hours exposure, viability relative to control wells
Method: Xantolipin was obtained from Shaghai Jiao Tong University, China.
IMR90 cells were grown in DMEM—low glucose (Sigma) supplemented with 2 mM L-Glutamine, 1% MEM NEAA (Sigma), 1 mM Sodium Pyruvate, 10 mM HEPES and 100 U/mL Pen-Strep. The cells were subcultured twice or thrice a week at ratios between 1:2 and 1:8, depending on confluency. […] The microplates with cell suspension were shaked at 1600 rpm with 2.5 mm amplitude (Bioshake) for 20 seconds after seeding. […] The microplates with the IMR90 cells were incubated at 37° C. with 5% CO2 atmosphere. […] The serial dilutions with the compounds were further diluted in cell culture medium and transferred to the assay wells, giving a total DMSO concentration in the assay wells of 0.6%. After exposure, the assay plates with the IMR90 cells were further incubated at 37° C. with 5% CO2 atmosphere for 24 hours. The viability of the cells after incubation was measured using the Promega CellTiter-GLO 2.0 viability assay.

[3] = footnote of Table 1: resistance profile of Enterococcus faecium CCUG37832, read-out: Mic
[4] = Enterococcus faecium, CCUG37832, E. faecium CCUG 37832 (multiresistant, vanA-positive clinical isolate), 19 h at 35° C., read-out: MIC
[5] = Enterococcus faecium, CTC492, E. faecium CTC 492, 19 h at 35° C., read-out: MIC
[6] = Staphylococcus aureus, NCTC6571, S. aureus NCTC 6571, 19 h at 35° C., read-out: MIC
[7] = Staphylococcus aureus, S. aureus ATCC 43300 (MRSA), 19 h at 35° C., read-out: MIC
[8] = Staphylococcus aureus, ATCC29213, S. aureus ATCC 29213, 19 h at 35° C., read-out: MIC
[9] = Micrococcus luteus, ATCC9341, M. luteus, ATCC 9341, 19 h at 35° C., read-out: MIC

Molecule: CN[C@@H]1[C@@H](O[C@H]2O[C@H](CO)[C@@H](N)[C@H](O)[C@H]2O)OC2C[C@@H](N)[C@@H](O[C@H]3[C@H](O)[C@@H](O)[C@H](N)C[C@@H]3N)OC2[C@@H]1O (stereo partly shown) [Apramycin]
- MIC (E. faecium CCUG 37832; [3]): > 20 µg/mL

Molecule: Gentamicin
- MIC (E. faecium CCUG 37832; E. faecium CCUG 37832 (multiresistant, vanA-positive clinical isolate), 19 h at 35° C.): 16 µg/mL
- MIC (E. faecium CTC 492; E. faecium CTC 492, 19 h at 35° C.): 16 µg/mL
- MIC (S. aureus NCTC 6571; S. aureus NCTC 6571, 19 h at 35° C.): 4 µg/mL
- MIC ([1]; S. aureus ATCC 43300 (MRSA), 19 h at 35° C.): 16 µg/mL
- MIC (S. aureus ATCC 29213; S. aureus ATCC 29213, 19 h at 35° C.): 4 µg/mL
- MIC (M. luteus, ATCC 9341; M. luteus, ATCC 9341, 19 h at 35° C.): 4 µg/mL

Molecule: CC[C@H](C)[C@H](N)C1=N[C@H](C(=O)N[C@@H](CC(C)C)C(=O)N[C@H](CCC(=O)O)C(=O)N[C@H](C(=O)N[C@H]2CCCCNC(=O)[C@H](CC(N)=O)NC(=O)[C@@H](CC(=O)O)NC(=O)[C@H](Cc3cnc[nH]3)NC(=O)[C@@H](Cc3ccccc3)NC(=O)[C@H]([C@@H](C)CC)NC(=O)[C@@H](CCCN)NC2=O)[C@@H](C)CC)CS1 [Bacitracin] ({Ileψ(thiazoline)Cys}-L[dE]IK[dOrn]I[dF]H[dD]N; lactam 4-C)
- MIC (E. faecium CCUG 37832; [3]): > 8 µg/mL

Molecule: CN[C@@H]1[C@H](O)[C@H](NC)[C@H]2O[C@@]3(O)C(=O)C[C@@H](C)O[C@H]3O[C@@H]2[C@H]1O [Spectinomycin]
- MIC (E. faecium CCUG 37832; [3]): > 8 µg/mL

Molecule: CCCCCCCCCC(=O)N[C@@H](Cc1c[nH]c2ccccc12)C(=O)N[C@H](CC(N)=O)C(=O)N[C@@H](CC(=O)O)C(=O)N[C@@H]1C(=O)NCC(=O)N[C@@H](CCCN)C(=O)N[C@@H](CC(=O)O)C(=O)N[C@H](C)C(=O)N[C@@H](CC(=O)O)C(=O)NCC(=O)N[C@H](CO)C(=O)N[C@@H]([C@H](C)CC(=O)O)C(=O)N[C@@H](CC(=O)c2ccccc2N)C(=O)O[C@@H]1C [Daptomycin]
- MIC (E. faecium CCUG 37832; [4]): > 16 µg/mL
- MIC (E. faecium CTC 492; [5]): > 16 µg/mL
- MIC (S. aureus NCTC 6571; [6]): 4 µg/mL (≈ 2.47 µM)
- MIC [1, 7]: 4 µg/mL (≈ 2.47 µM)
- MIC (S. aureus ATCC 29213; [8]): 4 µg/mL (≈ 2.47 µM)
- MIC (M. luteus, ATCC 9341; [9]): 0.5 µg/mL (≈ 0.309 µM)

Molecule: CN[C@H](CC(C)C)C(=O)N[C@H]1C(=O)N[C@@H](CC(N)=O)C(=O)N[C@H]2C(=O)N[C@H]3C(=O)N[C@H](C(=O)N[C@H](C(=O)O)c4cc(O)cc(O)c4-c4cc3ccc4O)[C@H](O)c3ccc(c(Cl)c3)Oc3cc2cc(c3O[C@@H]2O[C@H](CO)[C@@H](O)[C@H](O)[C@H]2O[C@H]2C[C@](C)(N)[C@H](O)[C@H](C)O2)Oc2ccc(cc2Cl)[C@H]1O [Vancomycin]
- MIC (E. faecium CCUG 37832; Enterococcus faecium, CCUG37832): > 20 µg/mL
- MIC (E. faecium CCUG 37832; Enterococcus faecium, CCUG37832, 19 h): > 16 µg/mL
- MIC (E. faecium CTC 492; Enterococcus faecium, CTC492, 19 h): 1 µg/mL (≈ 0.69 µM)
- MIC (S. aureus NCTC 6571; Staphylococcus aureus, NCTC6571, 19 h): 2 µg/mL (≈ 1.38 µM)
- MIC ([1]; Staphylococcus aureus, 19 h): 2 µg/mL (≈ 1.38 µM)
- MIC (S. aureus ATCC 29213; Staphylococcus aureus, ATCC29213, 19 h): 2 µg/mL (≈ 1.38 µM)
- MIC (M. luteus, ATCC 9341; Micrococcus luteus, ATCC9341, 19 h): 1 µg/mL (≈ 0.69 µM)

Molecule: CC1(C)S[C@@H]2[C@H](NC(=O)[C@H](N)c3ccccc3)C(=O)N2[C@H]1C(=O)O [Ampicillin]
- MIC (E. faecium CCUG 37832; [3]): 20 µg/mL (≈ 57.2 µM)

Molecule: CN(C)[C@@H]1C(O)=C(C(N)=O)C(=O)[C@@]2(O)C(O)=C3C(=O)c4c(O)ccc(Cl)c4[C@@](C)(O)[C@H]3C[C@@H]12 [Chlortetracycline]
- MIC (E. faecium CCUG 37832; [3]): > 10 µg/mL

Molecule: CC[C@H]1OC(=O)[C@H](C)[C@@H](O[C@H]2C[C@@](C)(OC)[C@@H](O)[C@H](C)O2)[C@H](C)[C@@H](O[C@@H]2O[C@H](C)C[C@H](N(C)C)[C@H]2O)[C@](C)(O)C[C@@H](C)C(=O)[C@H](C)[C@@H](O)[C@]1(C)O [erythromycin]
- MIC (E. faecium CCUG 37832; [3]): > 20 µg/mL

Molecule: [H]/N=C(/N)N[C@H]1[C@H](O)[C@@H](O)[C@H](O[C@@H]2O[C@@H](C)[C@](O)(C=O)[C@H]2O[C@@H]2O[C@@H](CO)[C@H](O)[C@@H](O)[C@@H]2NC)[C@@H](N/C(N)=N\[H])[C@@H]1O [Streptomycin]
- MIC (E. faecium CCUG 37832; [4]): > 16 µg/mL
- MIC (E. faecium CTC 492; [5]): > 16 µg/mL
- MIC (S. aureus NCTC 6571; [6]): 16 µg/mL (≈ 27.5 µM)
- MIC [1, 7]: 16 µg/mL (≈ 27.5 µM)
- MIC (S. aureus ATCC 29213; [8]): 16 µg/mL (≈ 27.5 µM)
- MIC (M. luteus, ATCC 9341; [9]): 8 µg/mL (≈ 13.8 µM)

Molecule: COc1c(Cl)ccc2c(=O)c3c(O)c4c5c(c3oc12)OCO[C@@H]5C[C@@H]1C(=O)c2cc(C)[nH]c(=O)c2C(=O)[C@]41O [Xantholipin]
- EC50 [2]: 1 µg/mL (≈ 1.81 µM)

Molecule: N[C@@H]1CON=C1O [Cycloserine]
- MIC (E. faecium CCUG 37832; [3]): > 8 µg/mL

Molecule: CCC[C@@H]1C[C@@H](C(=O)N[C@@H]([C@H]2O[C@H](SC)[C@H](O)[C@@H](O)[C@H]2O)[C@@H](C)O)N(C)C1 [Lincomycin]
- MIC (E. faecium CCUG 37832; [3]): > 10 µg/mL
